According to ChEMBL document CHEMBL5465560, “Selectivity Literature for EUbOPEN Chemogenomic Library” (2024):
Each block holds one compound with its values, some of them ahead of it.

Key:
[1] = target: T1, Serine/threonine-protein kinase TAO2 (Homo sapiens) (UniProt Q9UL54); assay: Selectivity interaction (SelectScreen profiling (Invitrogen)) EUB0000607a TAOK2; settings: at 2 µM
T1 sequence (whole entry): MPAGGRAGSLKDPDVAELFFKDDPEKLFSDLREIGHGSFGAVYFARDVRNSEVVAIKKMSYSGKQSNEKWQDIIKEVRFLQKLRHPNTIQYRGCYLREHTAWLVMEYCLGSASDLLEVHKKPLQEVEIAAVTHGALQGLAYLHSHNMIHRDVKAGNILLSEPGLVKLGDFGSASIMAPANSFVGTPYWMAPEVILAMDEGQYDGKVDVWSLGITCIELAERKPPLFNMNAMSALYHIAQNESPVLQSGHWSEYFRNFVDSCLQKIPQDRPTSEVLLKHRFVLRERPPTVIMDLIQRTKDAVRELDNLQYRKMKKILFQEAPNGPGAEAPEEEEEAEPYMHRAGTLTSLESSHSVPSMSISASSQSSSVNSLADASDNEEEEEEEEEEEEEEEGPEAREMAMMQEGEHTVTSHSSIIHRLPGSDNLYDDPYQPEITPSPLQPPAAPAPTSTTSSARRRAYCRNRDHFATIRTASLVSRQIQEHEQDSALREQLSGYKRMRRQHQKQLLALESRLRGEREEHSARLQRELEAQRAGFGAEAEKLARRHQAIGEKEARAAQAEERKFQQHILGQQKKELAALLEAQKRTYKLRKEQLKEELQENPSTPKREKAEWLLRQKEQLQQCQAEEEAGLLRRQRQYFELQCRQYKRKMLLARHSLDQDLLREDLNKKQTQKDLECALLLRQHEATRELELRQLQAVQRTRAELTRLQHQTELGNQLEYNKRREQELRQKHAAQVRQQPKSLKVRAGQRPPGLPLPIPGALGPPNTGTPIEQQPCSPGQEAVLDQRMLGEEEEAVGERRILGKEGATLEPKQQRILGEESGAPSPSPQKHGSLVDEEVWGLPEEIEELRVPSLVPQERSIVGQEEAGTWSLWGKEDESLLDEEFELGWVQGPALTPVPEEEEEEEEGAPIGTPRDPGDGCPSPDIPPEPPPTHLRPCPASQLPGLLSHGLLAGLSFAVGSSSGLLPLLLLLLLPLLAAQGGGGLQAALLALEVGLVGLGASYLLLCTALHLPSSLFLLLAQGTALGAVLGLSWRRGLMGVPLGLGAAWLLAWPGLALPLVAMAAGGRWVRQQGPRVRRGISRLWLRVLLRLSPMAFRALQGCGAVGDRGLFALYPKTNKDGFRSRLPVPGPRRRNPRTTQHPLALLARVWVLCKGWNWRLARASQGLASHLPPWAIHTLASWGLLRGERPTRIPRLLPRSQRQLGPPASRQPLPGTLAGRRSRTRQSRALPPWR

[2] = target: T2, Testis-specific serine/threonine-protein kinase 1 (Homo sapiens) (UniProt Q9BXA7); assay: Selectivity interaction (Upstate Kinase Profiler service (Millipore)) EUB0000056c TSSK1A; settings: at 1 µM
T2 sequence (whole entry): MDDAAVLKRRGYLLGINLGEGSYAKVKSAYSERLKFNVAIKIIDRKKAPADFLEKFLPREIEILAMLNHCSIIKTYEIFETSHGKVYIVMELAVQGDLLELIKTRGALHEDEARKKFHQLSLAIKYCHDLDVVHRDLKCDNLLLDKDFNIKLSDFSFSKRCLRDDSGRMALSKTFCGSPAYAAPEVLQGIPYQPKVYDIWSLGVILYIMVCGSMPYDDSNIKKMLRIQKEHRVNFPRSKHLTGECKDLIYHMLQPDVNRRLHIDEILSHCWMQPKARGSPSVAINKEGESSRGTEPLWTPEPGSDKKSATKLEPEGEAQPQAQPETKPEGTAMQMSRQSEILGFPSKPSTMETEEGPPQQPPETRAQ

[3] = target: T3, Serine/threonine-protein kinase ULK1 (Homo sapiens) (UniProt O75385); assay: Selectivity interaction (KinomeScan (DiscoverX)) EUB0000595a ULK1; settings: at 10 µM
T3 sequence (whole entry): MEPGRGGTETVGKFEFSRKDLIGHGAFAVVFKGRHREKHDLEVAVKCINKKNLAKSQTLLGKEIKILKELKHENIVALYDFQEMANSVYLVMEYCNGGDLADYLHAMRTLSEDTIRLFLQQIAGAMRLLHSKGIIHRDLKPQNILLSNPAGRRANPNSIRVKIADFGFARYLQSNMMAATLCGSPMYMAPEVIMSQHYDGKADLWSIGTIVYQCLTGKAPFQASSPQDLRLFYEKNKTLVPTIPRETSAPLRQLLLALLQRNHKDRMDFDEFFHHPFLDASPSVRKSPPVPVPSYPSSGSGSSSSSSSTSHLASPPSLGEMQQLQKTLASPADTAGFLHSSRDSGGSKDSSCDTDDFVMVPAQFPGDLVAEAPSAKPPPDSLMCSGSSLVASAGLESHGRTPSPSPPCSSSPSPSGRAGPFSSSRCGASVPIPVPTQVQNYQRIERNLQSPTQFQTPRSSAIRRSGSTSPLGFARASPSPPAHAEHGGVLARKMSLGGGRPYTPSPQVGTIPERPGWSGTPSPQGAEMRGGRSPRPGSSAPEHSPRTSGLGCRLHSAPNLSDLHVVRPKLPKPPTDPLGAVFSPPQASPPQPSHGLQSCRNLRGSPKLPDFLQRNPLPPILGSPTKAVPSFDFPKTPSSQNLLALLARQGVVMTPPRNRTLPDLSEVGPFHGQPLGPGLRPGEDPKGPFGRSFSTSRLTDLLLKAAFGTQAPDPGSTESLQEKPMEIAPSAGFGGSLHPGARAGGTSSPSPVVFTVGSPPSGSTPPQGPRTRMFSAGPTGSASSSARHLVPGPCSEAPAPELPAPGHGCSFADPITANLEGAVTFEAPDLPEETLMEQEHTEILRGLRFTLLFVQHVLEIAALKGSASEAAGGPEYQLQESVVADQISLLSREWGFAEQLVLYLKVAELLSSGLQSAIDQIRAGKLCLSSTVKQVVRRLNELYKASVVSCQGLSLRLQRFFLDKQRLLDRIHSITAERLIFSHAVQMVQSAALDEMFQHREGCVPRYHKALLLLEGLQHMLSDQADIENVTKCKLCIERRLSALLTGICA

[4] = target: MAP kinase-activated protein kinase 2 (Homo sapiens, UniProt P49137); assay: Selectivity interaction (Millipore kinase profiler) EUB0000124b MAPKAPK2; settings: at 10 µM
Chain of MAP kinase-activated protein kinase 2 (P49137 whole entry, looked up): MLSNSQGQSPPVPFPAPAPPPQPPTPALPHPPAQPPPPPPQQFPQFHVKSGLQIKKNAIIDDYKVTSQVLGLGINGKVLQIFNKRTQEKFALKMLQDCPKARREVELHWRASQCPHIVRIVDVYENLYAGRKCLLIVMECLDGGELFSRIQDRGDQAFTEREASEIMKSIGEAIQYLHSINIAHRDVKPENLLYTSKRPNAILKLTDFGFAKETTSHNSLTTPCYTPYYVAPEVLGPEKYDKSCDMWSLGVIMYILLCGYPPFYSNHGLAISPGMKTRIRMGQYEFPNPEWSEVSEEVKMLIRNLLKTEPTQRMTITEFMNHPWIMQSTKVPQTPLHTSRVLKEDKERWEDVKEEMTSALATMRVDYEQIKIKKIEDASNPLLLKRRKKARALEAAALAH

[5] = target: Bone morphogenetic protein receptor type-1B (Homo sapiens, UniProt O00238); settings: at 10 µM
Chain of Bone morphogenetic protein receptor type-1B (O00238 whole entry): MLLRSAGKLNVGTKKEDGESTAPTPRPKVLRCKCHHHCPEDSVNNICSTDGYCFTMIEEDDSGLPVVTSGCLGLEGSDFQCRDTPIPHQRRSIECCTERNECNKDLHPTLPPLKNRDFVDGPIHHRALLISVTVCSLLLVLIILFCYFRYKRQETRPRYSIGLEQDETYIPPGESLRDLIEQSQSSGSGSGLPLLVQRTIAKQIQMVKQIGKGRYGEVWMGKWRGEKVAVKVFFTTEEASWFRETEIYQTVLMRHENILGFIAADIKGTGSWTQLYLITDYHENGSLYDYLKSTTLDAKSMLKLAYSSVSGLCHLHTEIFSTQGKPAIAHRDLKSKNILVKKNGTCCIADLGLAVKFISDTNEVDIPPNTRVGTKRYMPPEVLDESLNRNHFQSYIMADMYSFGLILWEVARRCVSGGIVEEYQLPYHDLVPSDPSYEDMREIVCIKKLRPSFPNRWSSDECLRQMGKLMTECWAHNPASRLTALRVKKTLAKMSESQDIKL

[6] = target: Mitogen-activated protein kinase kinase kinase 20 (Homo sapiens) (UniProt Q9NYL2); assay: Selectivity interaction (KinomeScan (DiscoverX)) EUB0001619a MAP3K20; settings: at 1 µM
Chain of Mitogen-activated protein kinase kinase kinase 20 (Homo sapiens) (Q9NYL2 2-800 limits assumed): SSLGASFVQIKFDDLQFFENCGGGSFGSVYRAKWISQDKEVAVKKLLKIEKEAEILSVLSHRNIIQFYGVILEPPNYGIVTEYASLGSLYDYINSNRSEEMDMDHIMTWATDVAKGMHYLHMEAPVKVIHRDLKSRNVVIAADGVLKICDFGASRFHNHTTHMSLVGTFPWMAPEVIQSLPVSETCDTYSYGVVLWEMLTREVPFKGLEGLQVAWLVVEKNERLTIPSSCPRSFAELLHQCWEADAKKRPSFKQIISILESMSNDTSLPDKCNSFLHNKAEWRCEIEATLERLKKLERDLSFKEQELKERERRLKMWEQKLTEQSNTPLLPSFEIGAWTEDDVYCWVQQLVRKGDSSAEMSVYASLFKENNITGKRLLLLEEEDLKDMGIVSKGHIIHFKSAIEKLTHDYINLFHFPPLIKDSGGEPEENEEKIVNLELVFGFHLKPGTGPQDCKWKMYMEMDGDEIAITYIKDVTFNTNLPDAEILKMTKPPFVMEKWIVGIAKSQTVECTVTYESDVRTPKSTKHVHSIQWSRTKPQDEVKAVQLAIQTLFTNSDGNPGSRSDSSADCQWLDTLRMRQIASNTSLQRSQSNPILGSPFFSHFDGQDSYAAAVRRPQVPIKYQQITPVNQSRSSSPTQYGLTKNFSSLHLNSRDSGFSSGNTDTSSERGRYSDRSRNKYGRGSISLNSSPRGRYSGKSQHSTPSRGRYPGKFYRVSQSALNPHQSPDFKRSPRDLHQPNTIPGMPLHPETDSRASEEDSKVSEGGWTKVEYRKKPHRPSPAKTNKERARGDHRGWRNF

[7] = target: Calcium/calmodulin-dependent protein kinase type 1D (Homo sapiens) (UniProt Q8IU85); assay: Selectivity interaction (KinomeScan (DiscoverX)) EUB0001619a CAMK1D; settings: at 1 µM
Chain of Calcium/calmodulin-dependent protein kinase type 1D (Homo sapiens) (Q8IU85 whole entry, looked up): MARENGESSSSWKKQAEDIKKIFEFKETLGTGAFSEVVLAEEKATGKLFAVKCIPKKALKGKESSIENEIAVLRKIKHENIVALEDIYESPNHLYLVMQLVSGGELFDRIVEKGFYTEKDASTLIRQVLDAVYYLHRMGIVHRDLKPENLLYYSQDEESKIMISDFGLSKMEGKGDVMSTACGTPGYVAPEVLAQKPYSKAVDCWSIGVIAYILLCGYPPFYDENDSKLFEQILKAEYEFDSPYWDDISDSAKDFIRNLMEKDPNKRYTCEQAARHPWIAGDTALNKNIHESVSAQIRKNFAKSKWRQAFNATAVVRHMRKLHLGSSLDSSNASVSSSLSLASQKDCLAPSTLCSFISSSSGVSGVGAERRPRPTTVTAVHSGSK

Structure (SMILES): CNC(=O)Nc1ccc(-c2nc(N3CC4CCC(C3)O4)c3cnn(C4CCC5(CC4)OCCO5)c3n2)cc1
- % of inhibition [1]: 3%

- % of inhibition [2]: 35%
Structure (SMILES): Cc1ccc(-c2ccc3c(ccc4sc5c(c43)NC[C@@H](C)NC5=O)n2)cn1

Structure (SMILES): COCC(=O)NC/C=C/c1ccc2ncnc(Nc3ccc(Oc4ccc(C)nc4)c(C)c3)c2c1 [CP-724714]
- % of control [3]: 47%

- % of control [4]: 109%
Structure (SMILES): CC(=O)Nc1cccc(-n2c(=O)n(C3CC3)c(=O)c3c(Nc4ccc(I)cc4F)n(C)c(=O)c(C)c32)c1

Structure (SMILES): Cc1cc([C@@H](C)Nc2ccccc2C(=O)O)c2nc(N3CCOCC3)cc(=O)n2c1 [AZD-6482]
- % of control [5]: 97%

Structure (SMILES): N#Cc1cccc(-c2c[nH]c3ncnc(N4CCOCC4)c23)c1
- % of control [6]: 86%
- % of control [7]: 88%
